Laboratory results taken from patent publication US8455475B2 (Gruenenthal GmbH, priority 2009, dated 2013).

What was measured:
[1] = molecular target: T1, human B1R (bradykinin receptor 1) (Homo sapiens, UniProt P46663); assay: FLIPR Ca2+ assay (Fluo-4) on CHO K1 cells stably transfected with the human B1R gene (hB1R cells): % inhibition at 10 μM / IC50, agonist Lys-Des-Arg9-bradykinin; format: cell-based; details: for inhibition at 10 µM: CHO-K1, human B1R
T1 construct: expressed in transfected cells; host or cells: CHO K1 cells
T1 sequence (P46663 1-353): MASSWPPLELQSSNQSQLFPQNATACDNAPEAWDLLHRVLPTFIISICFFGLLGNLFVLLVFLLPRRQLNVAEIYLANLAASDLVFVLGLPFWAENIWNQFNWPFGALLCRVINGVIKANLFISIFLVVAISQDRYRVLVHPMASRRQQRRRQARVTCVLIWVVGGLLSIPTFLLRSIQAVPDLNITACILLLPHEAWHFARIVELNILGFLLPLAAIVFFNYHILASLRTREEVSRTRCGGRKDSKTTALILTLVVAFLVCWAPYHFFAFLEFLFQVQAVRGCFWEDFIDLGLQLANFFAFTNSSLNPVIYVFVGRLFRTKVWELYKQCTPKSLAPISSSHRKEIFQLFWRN
In short: (§1)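 Stably transfected CHO K1 cells loaded with Fluo-4 and read on FLIPR (λex 488, λem 540 nm; peak fluorescence). Test substance (10 μM) added first, then after 10–20 min the agonist at EC80; % inhibition versus maximum achievable inhibition. IC50 from several concentrations, n=2–3, N≥2.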

[2] = molecular target: T2, rat B1R (bradykinin receptor 1) (Rattus norvegicus, UniProt P97583); assay: FLIPR Ca2+ assay (Fluo-4) on CHO K1 cells stably transfected with the B1R gene of the rat (rB1R cells): % inhibition at 10 μM / IC50, agonist Des-Arg9-bradykinin; format: cell-based; details: for inhibition at 10 µM: CHO-K1, rat B1R
T2 construct: expressed in transfected cells; host or cells: CHO K1 cells
T2 sequence (P97583 1-337): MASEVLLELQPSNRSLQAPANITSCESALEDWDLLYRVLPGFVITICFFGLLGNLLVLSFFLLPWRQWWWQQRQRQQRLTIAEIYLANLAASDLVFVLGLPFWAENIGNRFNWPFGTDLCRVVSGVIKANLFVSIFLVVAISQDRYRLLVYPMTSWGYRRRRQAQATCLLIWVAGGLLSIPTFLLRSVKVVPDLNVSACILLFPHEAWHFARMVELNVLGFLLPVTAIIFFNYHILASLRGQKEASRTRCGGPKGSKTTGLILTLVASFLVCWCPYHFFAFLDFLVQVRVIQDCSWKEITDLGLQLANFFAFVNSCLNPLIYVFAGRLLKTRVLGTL
In short: as §1

inhibition at 10 µM [1] | inhibition at 10 µM [2] | % Inhibition (human B1R) at 10 μM [1] | % Inhibition (rat B1R) at 10 μM [2] | Compound
93% | 101% |  |  | CN(C(=O)c1ccccn1)C1CCc2ccc(C(=O)N3CCC4(CC3)CCN(c3ccncc3)CC4)cc21 (stereo not drawn) [Ind_CC-014, N-methyl-N-[6-(9-pyridin-4-yl-3,9-diazaspiro[5.5]undecane-3-carbonyl)-2,3-dihydro-1H-inden-1-yl]-pyridine-2-carboxylic acid amide]
100% | 101% |  |  | CN(C(=O)c1ccccc1C(F)(F)F)C1CCc2ccc(C(=O)N3CCC4(CC3)CCN(c3ccncc3)CC4)cc21 (stereo not drawn) [Ind_CC-015, N-methyl-N-[6-(9-pyridin-4-yl-3,9-diazaspiro[5.5]undecane-3-carbonyl)-2,3-dihydro-1H-inden-1-yl]-2-(trifluoromethyl)-benzamide]
100% | 102% |  |  | CN(C(=O)c1sccc1Cl)C1CCc2ccc(C(=O)N3CCC4(CC3)CCN(c3ccncc3)CC4)cc21 (stereo not drawn) [Ind_CC-016, 3-chloro-N-methyl-N-[6-(9-pyridin-4-yl-3,9-diazaspiro[5.5]undecane-3-carbonyl)-2,3-dihydro-1H-inden-1-yl]-thiophene-2-carboxylic acid amide]
99% | 102% |  |  | CN(C(=O)c1ccc(Cl)s1)C1CCc2ccc(C(=O)N3CCC4(CC3)CCN(c3ccncc3)CC4)cc21 (stereo not drawn) [Ind_CC-017, 5-chloro-N-methyl-N-[6-(9-pyridin-4-yl-3,9-diazaspiro[5.5]undecane-3-carbonyl)-2,3-dihydro-1H-inden-1-yl]-thiophene-2-carboxylic acid amide]
98% | 98% |  |  | CN(C(=O)c1ccc(Cl)cc1Cl)C1CCc2ccc(C(=O)N3CCC4(CC3)CCN(c3ccncc3)CC4)cc21 (stereo not drawn) [Ind_CC-018, 2,4-dichloro-N-methyl-N-[6-(9-pyridin-4-yl-3,9-diazaspiro[5.5]undecane-3-carbonyl)-2,3-dihydro-1H-inden-1-yl]-benzamide]
99% | 95% |  |  | CN(C(=O)Cc1ccccc1Cl)C1CCc2ccc(C(=O)N3CCC4(CC3)CCN(c3ccncc3)CC4)cc21 (stereo not drawn) [Ind_CC-019, 2-(2-chlorophenyl)-N-methyl-N-[6-(9-pyridin-4-yl-3,9-diazaspiro[5.5]undecane-3-carbonyl)-2,3-dihydro-1H-inden-1-yl]-acetamide]
89% | 88% |  |  | CN(C(=O)/C=C/c1ccccc1Cl)C1CCc2ccc(C(=O)N3CCC4(CC3)CCN(c3ccncc3)CC4)cc21 (stereo not drawn) [Ind_CC-020, (E)-3-(2-chlorophenyl)-N-methyl-N-[6-(9-pyridin-4-yl-3,9-diazaspiro[5.5]undecane-3-carbonyl)-2,3-dihydro-1H-inden-1-yl]-acrylamide]
94% | 96% |  |  | CN(C(=O)C(c1ccccc1)c1ccccc1Cl)C1CCc2ccc(C(=O)N3CCC4(CC3)CCN(c3ccncc3)CC4)cc21 (stereo not drawn) [Ind_CC-021, 2-(2-chlorophenyl)-N-methyl-2-phenyl-N-[6-(9-pyridin-4-yl-3,9-diazaspiro[5.5]undecane-3-carbonyl)-2,3-dihydro-1H-inden-1-yl]-acetamide]
91% | 75% |  |  | CN(C(=O)Nc1ccc(Cl)c(Cl)c1)C1CCc2ccc(C(=O)N3CCC4(CC3)CCN(c3ccncc3)CC4)cc21 (stereo not drawn) [Ind_CC-022, 3-(3,4-dichlorophenyl)-1-methyl-1-[6-(9-pyridin-4-yl-3,9-diazaspiro[5.5]undecane-3-carbonyl)-2,3-dihydro-1H-inden-1-yl]-urea]
 |  | 98% | 93% | CN(C(=O)NCc1ccccc1Cl)C1CCc2ccc(C(=O)N3CCC4(CC3)CCN(c3ccncc3)CC4)cc21 (stereo not drawn) [Ind_CC-023]
98% | 101% |  |  | O=C(NC1CCc2ccc(C(=O)N3CCC4(CC3)CCN(c3ccncc3)C4)cc21)c1sccc1Cl (stereo not drawn) [Ind_CC-042, 3-chloro-N-[6-(2-pyridin-4-yl-2,8-diazaspiro[4.5]decane-8-carbonyl)-2,3-dihydro-1H-inden-1-yl]-thiophene-2-carboxylic acid amide]
79% | 88% |  |  | O=C(NC1CCc2ccc(C(=O)N3CCC4(CC3)CCN(c3ccncc3)C4)cc21)c1ccc(Cl)s1 (stereo not drawn) [Ind_CC-043, 5-chloro-N-[6-(2-pyridin-4-yl-2,8-diazaspiro[4.5]decane-8-carbonyl)-2,3-dihydro-1H-inden-1-yl]-thiophene-2-carboxylic acid amide]
97% | 100% |  |  | O=C(NC1CCc2ccc(C(=O)N3CCC4(CC3)CCN(c3ccncc3)C4)cc21)c1ccc(Cl)cc1Cl (stereo not drawn) [Ind_CC-044, 2,4-dichloro-N-[6-(2-pyridin-4-yl-2,8-diazaspiro[4.5]decane-8-carbonyl)-2,3-dihydro-1H-inden-1-yl]-benzamide]
100% | 101% |  |  | O=C(Cc1ccccc1Cl)NC1CCc2ccc(C(=O)N3CCC4(CC3)CCN(c3ccncc3)C4)cc21 (stereo not drawn) [Ind_CC-045, 2-(2-chlorophenyl)-N-[6-(2-pyridin-4-yl-2,8-diazaspiro[4.5]decane-8-carbonyl)-2,3-dihydro-1H-inden-1-yl]-acetamide]
98% | 68% |  |  | O=C(/C=C/c1ccccc1Cl)NC1CCc2ccc(C(=O)N3CCC4(CC3)CCN(c3ccncc3)C4)cc21 (stereo not drawn) [Ind_CC-046, (E)-3-(2-chlorophenyl)-N-[6-(2-pyridin-4-yl-2,8-diazaspiro[4.5]decane-8-carbonyl)-2,3-dihydro-1H-inden-1-yl]-acrylamide]
 |  | 94% | 60% | O=C(Nc1ccc(Cl)c(Cl)c1)NC1CCc2ccc(C(=O)N3CCC4(CC3)CCN(c3ccncc3)C4)cc21 (stereo not drawn) [Ind_CC-047]
98% | 88% |  |  | O=C(NCc1ccccc1Cl)NC1CCc2ccc(C(=O)N3CCC4(CC3)CCN(c3ccncc3)C4)cc21 (stereo not drawn) [Ind_CC-048, 1-[(2-chlorophenyl)-methyl]-3-[6-(2-pyridin-4-yl-2,8-diazaspiro[4.5]decane-8-carbonyl)-2,3-dihydro-1H-inden-1-yl]-urea]
99% | 101% |  |  | O=C(c1ccc2c(c1)C(NS(=O)(=O)c1ccccc1Cl)CC2)N1CCC2(CC1)CCN(c1ccncc1)C2 (stereo not drawn) [Ind_CC-049, 2-chloro-N-[6-(2-pyridin-4-yl-2,8-diazaspiro[4.5]decane-8-carbonyl)-2,3-dihydro-1H-inden-1-yl]-benzenesulfonic acid amide]
100% | 93% |  |  | COc1cc(C)c(S(=O)(=O)NC2CCc3ccc(C(=O)N4CCC5(CC4)CCN(c4ccncc4)C5)cc32)c(C)c1 (stereo not drawn) [Ind_CC-050, 4-methoxy-2,6-dimethyl-N-[6-(2-pyridin-4-yl-2,8-diazaspiro[4.5]decane-8-carbonyl)-2,3-dihydro-1H-inden-1-yl]-benzenesulfonic acid amide]
71% | 99% |  |  | O=C(NC1CCc2ccc(C(=O)N3CCC4(CC3)CCN(c3ccncc3)C4)cc21)C(c1ccccc1)c1ccccc1Cl (stereo not drawn) [Ind_CC-051, 2-(2-chlorophenyl)-2-phenyl-N-[6-(2-pyridin-4-yl-2,8-diazaspiro[4.5]decane-8-carbonyl)-2,3-dihydro-1H-inden-1-yl]-acetamide]
62% | 81% |  |  | CC1(C)CC(NC(=O)c2ccccn2)c2cc(C(=O)N3CCC4(CC3)CCN(c3ccncc3)CC4)ccc21 (stereo not drawn) [Ind_CC-052, N-[3,3-dimethyl-6-(9-pyridin-4-yl-3,9-diazaspiro[5.5]undecane-3-carbonyl)-1,2-dihydro-inden-1-yl]-pyridine-2-carboxylic acid amide]
99% | 103% |  |  | CC1(C)CC(NC(=O)Cc2ccccc2Cl)c2cc(C(=O)N3CCC4(CC3)CCN(c3ccncc3)CC4)ccc21 (stereo not drawn) [Ind_CC-053, 2-(2-chlorophenyl)-N-[3,3-dimethyl-6-(9-pyridin-4-yl-3,9-diazaspiro[5.5]undecane-3-carbonyl)-1,2-dihydro-inden-1-yl]-acetamide]
96% | 102% |  |  | CC1(C)CC(NC(=O)c2ccc(Cl)s2)c2cc(C(=O)N3CCC4(CC3)CCN(c3ccncc3)CC4)ccc21 (stereo not drawn) [Ind_CC-054, 5-chloro-N-[3,3-dimethyl-6-(9-pyridin-4-yl-3,9-diazaspiro[5.5]undecane-3-carbonyl)-1,2-dihydro-inden-1-yl]-thiophene-2-carboxylic acid amide]
99% | 102% |  |  | CC1(C)CC(NC(=O)c2sccc2Cl)c2cc(C(=O)N3CCC4(CC3)CCN(c3ccncc3)CC4)ccc21 (stereo not drawn) [Ind_CC-055, 3-chloro-N-[3,3-dimethyl-6-(9-pyridin-4-yl-3,9-diazaspiro[5.5]undecane-3-carbonyl)-1,2-dihydro-inden-1-yl]-thiophene-2-carboxylic acid amide]
